Reference: ChEMBL document CHEMBL1201862, “PubChem BioAssay data set” (2004)
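Grown in 96-well plates, cells were treated for 48 hours with each compound at five concentrations. Insufficient inhibition: endpoint recorded as highest concentration tested. GI50 = concentration required for 50% inhibition of growth.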 Activity calls are given as the source filed them. No stated cut-off is given here; in the data, active = GI50 up to about 1.1 µM and inactive = higher.

Key:
Assay in all cases: NCI anticancer screen, dose series, 48 h
[1] = system: SN12C
[2] = system: HCT-116
[3] = system: A549
[4] = system: NCI/ADR-RES
[5] = system: HT-29
[6] = system: OVCAR-4
[7] = system: Malme-3M
[8] = system: RPMI-8226
[9] = system: SF-268
[10] = system: CCRF-CEM
[11] = system: BT-549
[12] = system: MDA-MB-435
[13] = system: TK-10
[14] = system: PC-3
[15] = system: SK-MEL-2
[16] = system: SW-620
[17] = system: SR
[18] = system: SF-295
[19] = system: NCI-H226
[20] = system: EKVX

Measured: GI50

Cc1cccc(C(=O)O)c1CC1NCCC2c3ccccc3NC12 (stereo not given)
inactive: [1] > 100 µM | [2] > 100 µM | [3] > 100 µM | [4] > 100 µM | [5] > 100 µM | [6] > 100 µM | [7] > 100 µM | [8] > 100 µM | [9] > 100 µM | [10] > 100 µM | [11] > 100 µM | [12] > 100 µM | [13] > 100 µM | [14] > 100 µM | [15] > 100 µM | [16] > 100 µM | [17] > 100 µM | [18] > 100 µM | [19] > 100 µM | [20] > 100 µM

COc1cc(C[C@H]2C(=O)OC[C@@H]2Cc2ccc(OC)c(OC)c2)cc(OC)c1
inactive: [1] > 100 µM | [2] 34.7 µM | [3] 74.8 µM | [4] 32.1 µM | [5] 33.2 µM | [6] 29.7 µM | [7] 55.6 µM | [8] 52.7 µM | [9] > 100 µM | [10] 25.8 µM | [11] 16.8 µM | [12] 55.7 µM | [13] > 100 µM | [14] 33 µM | [15] 78.5 µM | [16] 70.6 µM | [17] 30.5 µM | [18] 88.1 µM | [19] > 100 µM | [20] 55.6 µM

CCOC(=O)C1C2CCC1CC(=NNc1ccc([N+](=O)[O-])cc1[N+](=O)[O-])C2 (stereo not given)
inactive: [1] > 50 µM | [2] > 50 µM | [3] 37.6 µM | [4] 4.38 µM | [5] 47.2 µM | [6] > 50 µM | [7] > 50 µM | [8] 42.4 µM | [9] > 50 µM | [10] > 50 µM | [11] > 50 µM | [12] > 50 µM | [13] > 50 µM | [14] 39.6 µM | [15] > 50 µM | [16] > 50 µM | [17] 18.6 µM | [18] 8.99 µM | [19] 37.4 µM | [20] 30.3 µM

COC(=O)c1c(O)ccc2c1C1(Cc3ccccc3C1=O)C(O)O2 (stereo not given)
inactive: [1] 16.4 µM | [2] 15.6 µM | [3] 20.6 µM | [4] 27.8 µM | [5] 43.2 µM | [6] 16.2 µM | [7] 21.7 µM | [8] 2.88 µM | [9] 15.6 µM | [10] 2.46 µM | [11] 5.09 µM | [12] 13.4 µM | [13] 24.3 µM | [14] 17.2 µM | [15] 28.3 µM | [16] 25.1 µM | [17] 4.49 µM | [18] 42.3 µM | [19] 9.79 µM | [20] 23.1 µM

CCOc1cc(NC(C)=O)ccc1C(=O)NN1C(=O)C(Cl)C1c1ccc(O)c(OC)c1 (stereo not given)
inactive: [1] 13.3 µM | [2] 18.2 µM | [3] 16.7 µM | [4] 20.4 µM | [5] 16.3 µM | [6] 12.8 µM | [7] 8 µM | [8] 17.3 µM | [9] 14.7 µM | [10] 4.67 µM | [11] 8.83 µM | [12] 12.6 µM | [13] 3.08 µM | [14] 14.1 µM | [15] 14.8 µM | [16] 21.4 µM | [17] 4.52 µM | [18] 21.3 µM | [19] 10.2 µM | [20] 16.1 µM

Cn1cncc1CC1COC(=O)C1C(O)c1ccccc1 (stereo not given)
inactive: [1] > 100 µM | [2] > 100 µM | [3] > 100 µM | [4] > 100 µM | [5] > 100 µM | [6] > 100 µM | [7] > 100 µM | [8] > 100 µM | [9] > 100 µM | [10] > 100 µM | [11] > 100 µM | [12] > 100 µM | [13] > 100 µM | [14] > 100 µM | [15] > 100 µM | [16] > 100 µM | [17] > 100 µM | [18] > 100 µM | [19] > 100 µM | [20] > 100 µM

O=c1cc(NCc2ccncc2)[nH]c(=O)[nH]1
inactive: [1] > 100 µM | [2] > 100 µM | [3] > 100 µM | [4] > 100 µM | [5] > 100 µM | [6] > 100 µM | [7] > 100 µM | [8] > 100 µM | [9] > 100 µM | [10] > 100 µM | [11] > 100 µM | [12] > 100 µM | [13] > 100 µM | [14] > 100 µM | [15] > 100 µM | [16] > 100 µM | [17] > 100 µM | [18] > 100 µM | [19] > 100 µM | [20] > 100 µM
